Measured values: PubChem BioAssay AID248 (DTP/NCI, 2004)
Where “and” joins values, the source holds several entries; their conditions need not be identical. Identical values can stand only once. Toxic doses and inconclusive results are not listed. Cut-off read from the data, not from the text of the source: active = T/C of 150% or more; inactive = T/C below 125%.

Test system: L1210 leukemia ip in BDF1 mice, survival T/C
Assay: NCI In Vivo Anticancer Drug Screen. Data for tumor model L1210 Leukemia (intraperitoneal) in B6D2F1 (BDF1) mice
Conditions: endpoint: mean survival time, higher = longer survival
How it was run: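 Tumor was transplanted into mice, which were then dosed with test compound or vehicle alone. Survival was recorded for each group, and the treated figure was expressed relative to the control figure.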

[1] = dose: 100.0 mg/kg/injection, schedule: Q01DX009 (ip), vehicle: saline with Tween-80
[2] = dose: 200.0 mg/kg/injection, schedule: Q01DX009 (ip), vehicle: saline with Tween-80
[3] = dose: 400.0 mg/kg/injection, schedule: Q01DX009 (ip), vehicle: saline with Tween-80
[4] = dose: 100.0 mg/kg/injection, schedule: Q04DX003 (ip), vehicle: Klucel (hydroxypropylcellulose) (HPC)
[5] = dose: 200.0 mg/kg/injection, schedule: Q04DX003 (ip), vehicle: Klucel (hydroxypropylcellulose) (HPC)
[6] = dose: 400.0 mg/kg/injection, schedule: Q04DX003 (ip), vehicle: Klucel (hydroxypropylcellulose) (HPC)
[7] = dose: 100.0 mg/kg/injection, schedule: Q01DX009 (ip), vehicle: Klucel (hydroxypropylcellulose) (HPC)
[8] = dose: 200.0 mg/kg/injection, schedule: Q01DX009 (ip), vehicle: Klucel (hydroxypropylcellulose) (HPC)
[9] = dose: 400.0 mg/kg/injection, schedule: Q01DX009 (ip), vehicle: Klucel (hydroxypropylcellulose) (HPC)
[10] = dose: 100.0 mg/kg/injection, schedule: Q04DX002 (ip), vehicle: saline
[11] = dose: 50.0 mg/kg/injection, schedule: Q01DX009 (ip), vehicle: saline with Tween-80
[12] = dose: 100.0 mg/kg/injection, schedule: Q01DX001 (ip), vehicle: saline with Tween-80
[13] = dose: 200.0 mg/kg/injection, schedule: Q01DX001 (ip), vehicle: saline with Tween-80
[14] = dose: 25.0 mg/kg/injection, schedule: Q01DX001 (ip), vehicle: saline with Tween-80
[15] = dose: 50.0 mg/kg/injection, schedule: Q01DX001 (ip), vehicle: saline with Tween-80
[16] = dose: 200.0 mg/kg/injection, schedule: Q04DX002 (ip), vehicle: saline
[17] = dose: 400.0 mg/kg/injection, schedule: Q04DX002 (ip), vehicle: saline
[18] = dose: 50.0 mg/kg/injection, schedule: Q01DX009 (ip), vehicle: Klucel (hydroxypropylcellulose) (HPC)
[19] = dose: 100.0 mg/kg/injection, schedule: Q04DX003 (ip), vehicle: saline with Tween-80
[20] = dose: 200.0 mg/kg/injection, schedule: Q04DX003 (ip), vehicle: saline with Tween-80
[21] = dose: 400.0 mg/kg/injection, schedule: Q04DX003 (ip), vehicle: saline with Tween-80

Measured: T/C

CC1CCN(C(=O)Nc2cccc(C(F)(F)F)c2)CC1
inactive: [1] 94 % of control | [2] 97 % of control | [3] 91 % of control

Cn1nc2c(c1-c1ccc(O)cc1)CCCc1ccccc1-2
inactive: [4] 100 % of control | [5] 98 % of control | [6] 98 % of control

C[N+]1(C)C2CC(=O)CC1C1CC12 (stereo not given)
inactive: dose: 50.0 mg/kg/injection, schedule: Q01DX009 (ip), vehicle: saline 91 % of control | dose: 100.0 mg/kg/injection, schedule: Q01DX009 (ip), vehicle: saline 93 % of control | dose: 100.0 mg/kg/injection, schedule: Q04DX003 (ip), vehicle: saline 100 % of control | dose: 200.0 mg/kg/injection, schedule: Q01DX009 (ip), vehicle: saline 88 % of control | dose: 200.0 mg/kg/injection, schedule: Q04DX003 (ip), vehicle: saline 103 % of control

COc1ccc(Cl)cc1NC(=O)Nc1cc(C)ccn1
inactive: [7] 104 % of control | [8] 100 % of control | [9] 88 % of control

NC1=NCCS1
inactive: dose: 25.0 mg/kg/injection, schedule: Q04DX002 (ip), vehicle: saline 103 % of control | dose: 50.0 mg/kg/injection, schedule: Q04DX002 (ip), vehicle: saline 110 % of control | [10] 95 % of control and 103 % of control

CN(C)C=NCCNc1ccc([N+](=O)[O-])cn1
inactive: [11] 100 % of control | [12] 98 % of control | [1] 100 % of control | [13] 95 % of control

Nc1nc(=O)n(CCCOc2ccc([N+](=O)[O-])c(Cl)c2)cc1-c1ccc(Cl)c(Cl)c1
inactive: [14] 95 % of control | [15] 96 % of control | [12] 88 % of control

S=C(Nc1ccc(Cl)c(Cl)c1)SCc1ccc(Cl)c(Cl)c1
inactive: dose: 15.0 mg/kg/injection, schedule: Q04DX003 (ip), vehicle: saline 97 % of control | dose: 30.0 mg/kg/injection, schedule: Q04DX003 (ip), vehicle: saline 101 % of control | dose: 60.0 mg/kg/injection, schedule: Q04DX003 (ip), vehicle: saline 101 % of control | [10] 88 % of control | [16] 112 % of control | [17] 88 % of control

OCC[CH2][Sn]([c]1ccccc1)([c]1ccccc1)[c]1ccccc1
inactive: dose: 6.25 mg/kg/injection, schedule: Q04DX002 (ip), vehicle: saline with Tween-80 101 % of control | dose: 12.5 mg/kg/injection, schedule: Q04DX002 (ip), vehicle: saline with Tween-80 101 % of control | dose: 25.0 mg/kg/injection, schedule: Q04DX002 (ip), vehicle: saline with Tween-80 87 % of control | [11] 96 % of control | [1] 96 % of control | [2] 96 % of control

O=C1c2ccccc2C(=O)c2[nH]c(-c3ccccc3)cc21
inactive: [12] 94 % of control | [13] 94 % of control | dose: 400.0 mg/kg/injection, schedule: Q01DX001 (ip), vehicle: saline with Tween-80 94 % of control

O=C1Nc2ccc(Cl)cc2C(c2ccccc2)=NC1O (stereo not given)
inactive: dose: 25.0 mg/kg/injection, schedule: Q01DX009 (ip), vehicle: Klucel (hydroxypropylcellulose) (HPC) 103 % of control | dose: 25.0 mg/kg/injection, schedule: Q04DX003 (ip), vehicle: Klucel (hydroxypropylcellulose) (HPC) 98 % of control | [18] 101 % of control | dose: 50.0 mg/kg/injection, schedule: Q04DX003 (ip), vehicle: Klucel (hydroxypropylcellulose) (HPC) 104 % of control | [7] 98 % of control | [4] 104 % of control | [8] 107 % of control | [5] 114 % of control | [9] 91 % of control | [6] 111 % of control

CC(C)(C1c2ccccc2C(=NO)c2ccccc21)[N+](=O)[O-] (stereo not given)
inactive: [1] 98 % of control | [19] 95 % of control | [2] 94 % of control | [20] 95 % of control | [3] 94 % of control | [21] 98 % of control

CCOC(=O)CNC(=O)Oc1ccc2c(C)cc(=O)oc2c1
inactive: dose: 25.0 mg/kg/injection, schedule: Q01DX009 (ip), vehicle: carboxymethylcellulose (CMC) 100 % of control and 106 % of control | dose: 50.0 mg/kg/injection, schedule: Q01DX009 (ip), vehicle: carboxymethylcellulose (CMC) 98 % of control and 100 % of control | dose: 100.0 mg/kg/injection, schedule: Q01DX009 (ip), vehicle: carboxymethylcellulose (CMC) 93 % of control and 97 % of control | dose: 100.0 mg/kg/injection, schedule: Q04DX002 (ip), vehicle: carboxymethylcellulose (CMC) 98 % of control and 102 % of control | dose: 100.0 mg/kg/injection, schedule: Q04DX003 (ip), vehicle: carboxymethylcellulose (CMC) 92 % of control and 90 % of control | dose: 200.0 mg/kg/injection, schedule: Q01DX009 (ip), vehicle: carboxymethylcellulose (CMC) 100 % of control | dose: 200.0 mg/kg/injection, schedule: Q04DX002 (ip), vehicle: carboxymethylcellulose (CMC) 93 % of control and 97 % of control | dose: 200.0 mg/kg/injection, schedule: Q04DX003 (ip), vehicle: carboxymethylcellulose (CMC) 92 % of control and 87 % of control | dose: 400.0 mg/kg/injection, schedule: Q04DX002 (ip), vehicle: carboxymethylcellulose (CMC) 104 % of control and 105 % of control | dose: 400.0 mg/kg/injection, schedule: Q04DX003 (ip), vehicle: carboxymethylcellulose (CMC) 94 % of control and 101 % of control

CCCC(O)(CC)C1CCCC1C (stereo not given)
inactive: [11] 105 % of control | [1] 111 % of control | [2] 94 % of control

O=C(Nc1cccc(Cl)c1)c1ccccc1
inactive: [7] 94 % of control | [4] 92 % of control | [8] 94 % of control | [5] 90 % of control | [9] 97 % of control | [6] 101 % of control

O=c1[nH]cc(S(=O)(=O)Nc2ccccc2)c(=O)[nH]1
inactive: [14] 106 % of control | [15] 103 % of control | [12] 103 % of control

CC1CN=C(c2ccc(O)c(O)c2)S1 (stereo not given)
inactive: [10] 107 % of control | [16] 107 % of control | [17] 100 % of control

CN(C)c1ccc(/C=C/c2nc3ccccc3o2)cc1
inactive: [7] 95 % of control | [8] 95 % of control | [9] 94 % of control

CC1=NN(c2ccc(S(=O)(=O)O)cc2Cl)C(=O)C1
inactive: [19] 101 % of control | [20] 98 % of control | [21] 90 % of control

O=C(/C=C/c1ccccc1)c1ccc(Cl)c(Cl)c1
inactive: [11] 101 % of control | [1] 101 % of control | [2] 97 % of control

O=C(Nc1ccccc1)c1ccco1
inactive: [18] 102 % of control | [7] 102 % of control | dose: 100.0 mg/kg/injection, schedule: Q04DX002 (ip), vehicle: Klucel (hydroxypropylcellulose) (HPC) 102 % of control | [8] 100 % of control | dose: 200.0 mg/kg/injection, schedule: Q04DX002 (ip), vehicle: Klucel (hydroxypropylcellulose) (HPC) 98 % of control | dose: 400.0 mg/kg/injection, schedule: Q04DX002 (ip), vehicle: Klucel (hydroxypropylcellulose) (HPC) 91 % of control

O=C(OCC1OCOC1C1OCOC1COC(=O)c1ccccc1)c1ccccc1 (stereo not given)
inactive: dose: 100.0 mg/kg/injection, schedule: Q01DX001 (ip), vehicle: saline 96 % of control | dose: 200.0 mg/kg/injection, schedule: Q01DX001 (ip), vehicle: saline 94 % of control | dose: 400.0 mg/kg/injection, schedule: Q01DX001 (ip), vehicle: saline 88 % of control

O=C(Cl)C1CCCCC1
inactive: dose: 6.25 mg/kg/injection, schedule: Q01DX015 (ip), vehicle: saline 93 % of control | dose: 12.5 mg/kg/injection, schedule: Q01DX015 (ip), vehicle: saline 89 % of control | dose: 25.0 mg/kg/injection, schedule: Q01DX015 (ip), vehicle: saline 93 % of control and 96 % of control | dose: 50.0 mg/kg/injection, schedule: Q01DX015 (ip), vehicle: saline 90 % of control

CC1(C)N=C(N)N=C(N)N1c1cccc(OCCOc2ccc(N)cc2)c1
inactive: dose: 10.0 mg/kg/injection, schedule: Q01DX001 (ip), vehicle: saline 94 % of control | dose: 20.0 mg/kg/injection, schedule: Q01DX001 (ip), vehicle: saline 96 % of control | dose: 40.0 mg/kg/injection, schedule: Q01DX001 (ip), vehicle: saline 102 % of control
